“Also recorded” adds a separate entry of the source. Where two headings read alike, the source gives them in different places.
Legend:
Type in all cases: cell-based, human
[1] = tested on: HCT-116 colon cancer cells; test: XTT cell proliferation assay, HCT-116; conditions: read-out: IC50 (cell growth inhibition)
Method: (§1) Cell growth inhibition IC50 (μM) by compounds of Formula I was tested on various cancer cell types by XTT cell proliferation assay. The growth inhibitory effects of the compounds of Formula I as shown below for the melanoma cell line SK-MEL-2 were reproducible by Lorus Therapeutics Inc.

KLF4 [2] = test: KLF4 gene expression by RT-PCR, MDA-MB-231; conditions: MDA-MB-231, relative to vehicle control as 1
Source text: (§2) Gene expression levels of KLF4, induced by compounds of Formula I, were also examined on various cancer cell types by RT-PCR. Fold changes in KLF4 in compound-treated cells were expressed relative to KLF4 expression in vehicle control-treated cells of respective cell type as “1”. […] Additionally, xenografts of MDA-MB-435 implanted into mammary fat pads of female SCID mice have shown immunohistochemical staining consistent with melanocytic origin (Ellison G, Klinowska T, Westwood R F, Docter E, French T, Fox J C. (2002) Mol Pathol. 55(5): 294-299). The breast cancer cell line MDA-MB-435 may be expected to function differently than the other breast cancer cell lines.

KLF4 [3] = test: KLF4 gene expression by RT-PCR, H-460; conditions: for KLF2, KLF4 and KLF6 gene expression: H-460, 2.5 μM; for KLF4 (gene fold increase): H-460, relative to vehicle control as 1
Source text: as §2
Expressions of KLF2, 4 and 6 genes in H-460 cells, treated with vehicle control or 2.5 μM compound 3 or compound 7, were measured by RT-PCR. Gene expression was presented relative to respective gene expression in vehicle control-treated group as “1”.

H-460 lung cancer cells = test: XTT cell proliferation assay, H-460
Method: as §1

MOLT-4 leukemia cells = test: XTT cell proliferation assay, MOLT-4; conditions: read-out: IC50 (cell growth inhibition)
Method: as §1

KLF4 [4] = test: KLF4 gene expression by RT-PCR, DU-145; conditions: DU-145, relative to vehicle control as 1
Source text: as §2

KLF4 [5] = test: KLF4 gene expression by RT-PCR, SK-MEL-2; conditions: SK-MEL-2, relative to vehicle control as 1
Source text: as §2

KLF4 [6] = test: KLF4 gene expression by RT-PCR, HT-29; conditions: for KLF4 expression change with zinc supplement: HT-29, 1 μM compound plus 35 μM ZnCl2, 16 hr; for KLF4 gene expression, change: HT-29, 1 μM, in words; for KLF4 (gene fold increase): HT-29, relative to vehicle control as 1
Method: To determine whether compounds of Formula I can chelate zinc in cells, the effect of compound 3 on the expression level of a zinc-regulated gene, metallothionein 1A (MT1A), in human colon carcinoma HT-29 cells, was determined. HT-29 cells, 1×10^6 cells in 10 mL volume of the growth medium were seeded in 100 mm dishes and incubated overnight at 37° C. The medium was removed and replaced with the growth medium containing 35 μM ZnCl2, 1 μM or 4 μM TPEN (NNNN-tetrakis(2-pyridyl-methyl)ethylenediamine), or 1 μM or 4 μM compound 3, or 0.1% DMSO vehicle control. After incubation for 16 hours, the cells were detached by trypsinization, collected by centrifugation and washed once with PBS. Total RNA was extracted by using TRIZOL (Invitrogen, Life Technologies, Carlsbad, Calif.), following manufacturer's instruction, and the level of MT1A mRNA was measured by real time PCR using the comparative CT method as follows. First strand cDNA was synthesized from 200 ng total RNA in Biometra Tpersonal Thermal Cycler (Abgene, UK), using pd(N)6 random hexamer (Amersham Biosciences, Piscataway, N.J.) and SuperScript™ II Reverse Transcriptase kit (Invitrogen) by following manufacturer's protocol. Real-time PCR was performed in ABI Prism 7000 Sequence Detection System (Applied Biosystems Inc., ABI, Foster City, Calif.), using 5 μL of cDNA synthesized by above-mentioned procedure and respective TaqMan® Gene Expression Assays (ABI) by following ABI TaqMan® Universal PCR master mix protocol.
The ability of compounds of Formula I to modulate the mRNA level of a transition metal-regulated tumour suppressor gene was determined in vitro as follows. Compound 3 was tested to determine its ability to increase the expression of zinc-regulated tumour suppressor KLF4 mRNA in colon carcinoma HT-29 cells. […] HT-29 cells were incubated for 16 hours with DMSO as a vehicle control, 35 μM ZnCl2, 1 μM or 4 μM of compound 3, or 1 μM or 4 μM TPEN for 16 hours and mRNA was extracted from the cells as described in Example 19. The expression of KLF4 mRNA was analyzed by real-time polymerase chain reaction using the comparative CT method also as described in Example 19. Compound 3 induced the expression of KLF4 mRNA (approximately 8-fold) in HT-29 cells compared with HT-29 cells treated with vehicle alone (See FIG. 8).
as §2
The change in gene expression of KLF4 upon zinc depletion following compound 3 treatment was determined by RT-PCR as follows. HT-29 cells were treated with 1 μM compound 3 for the indicated time (FIG. 39A) or HT-29 cells were treated with 1 μM compound 3, 35 μM ZnCl2 or compund 3 and ZnCl2 together for 16 hr (FIG. 39B). Total RNA was extracted and gene expression level was determined by RT-PCR.
Fold change in KLF4 gene expression was presented relative to KLF4 expression in non-specific siRNA-transfected cells treated with vehicle control.

[7] = Homo sapiens, NCI-H460, read-out: IC50 (cell growth inhibition)

IC50 [1]	IC50 (H-460 lung cancer cells; read-out: IC50 (cell growth inhibition))	IC50 (MOLT-4 leukemia cells)	SMILES	IC50 ([1]; Homo sapiens)	KLF4 (gene fold increase) (KLF4 [2])	KLF2, KLF4 and KLF6 gene expression (KLF4 [3])	KLF4 (gene fold increase) (KLF4 [3])	IC50 (H-460 lung cancer cells; [7])	IC50 (MOLT-4 leukemia cells; Homo sapiens)	KLF4 (gene fold increase) (KLF4 [4])	KLF4 (gene fold increase) (KLF4 [5])	KLF4 expression change with zinc supplement (KLF4 [6])	KLF4 gene expression, change (KLF4 [6])	induction of KLF4 mRNA (KLF4 [6]; HT-29, 16 hours, 1 μM or 4 μM, versus vehicle)	KLF4 (gene fold increase) (KLF4 [6])	KLF4 gene expression after MTF-1 gene knock-down by siRNA (KLF4 [6]; HT-29 transfected with MTF-1 siRNA)
			Cc1[nH]c2ccccc2c1-c1nc2c3cccnc3c3ncccc3c2[nH]1 [Compound 3]	200 nM	1.52 fold	increased KLF4 as most significantly changed gene	3.4 fold	2900 nM	150 nM	9.16 fold	2.38 fold	reversed by addition of zinc supplement	Time-dependent increase in KLF4; also recorded: increased expression of KLF4	approximately 8 fold	6.5 fold	still increased
			Cc1[nH]c2ccc(F)cc2c1-c1nc2c3cccnc3c3ncccc3c2[nH]1 [Compound 7]	150 nM	1.6 fold	increased KLF4 as most significantly changed gene	2.1 fold	2600 nM	70 nM	11.24 fold	3.32 fold	reversed by addition of zinc supplement	increased expression of KLF4		8.66 fold	
200 nM	300 nM	175 nM	CCc1cccc2c(-c3nc4c5cccnc5c5ncccc5c4[nH]3)c(C(C)(C)C)[nH]c12 [Compound 64]		2.06 fold		1.64 fold			6.75 fold	5.35 fold	reversed by addition of zinc supplement	increased expression of KLF4		5.96 fold	
